“And” between values parts separate entries of the source, which are not always exact repeats. Equal values may be shown once. Read-outs that look alike come from different tables or passages of the source.
Columns and labels:
[1] = tested on: IL-1, IL-1Ra, TNF and soluble TNF receptor (sTNFR); parameters: species or system BALB/c mice; details: mouse, in vivo
[2] = tested on: Marburg virus strain Popp; parameters: species or system guinea-pigs; details: guinea pig, in vivo; monohydrate
[3] = tested on: Lassa virus strain Josiah; parameters: species or system BALB/c mice; details: mouse, in vivo
Dengue virus, type 2 = tested on: Dengue virus, type 2; parameters: species or system BALB/c mice; details: mouse, in vivo
[4] = 7 day period without viral infection
[5] = 58 mg/kg i.m. during 17 day period without virus injection
[6] = tested on: IL-1, TNF, IL-1 RA and sTNFr; test: Serum IL-1, TNF, IL-1RA and sTNFr after Doxycycline injection in uninfected mice (Group 1); assay type: in vivo, BALB/c mice; details: 58 mg/kg i.m. every day for 4 days
[7] = tested on: IL-1, TNF, IL-1RA and sTNFr; test: Serum IL-1, TNF, IL-1RA and sTNFr during treatment of Dengue virus infection (Example 2); assay type: in vivo, BALB/c mice
[8] = day 0, 58 mg/kg i.m. daily day 2-5 after infection (Group 3)
[9] = day 0, 58 mg/kg i.m. daily day 3-5 after infection (Group 4)
[10] = day 1, 58 mg/kg i.m. daily day 2-5 after infection (Group 3)
[11] = day 1, 58 mg/kg i.m. daily day 3-5 after infection (Group 4)
[12] = day 2, 58 mg/kg i.m. daily day 2-5 after infection (Group 3)
[13] = day 2, 58 mg/kg i.m. daily day 3-5 after infection (Group 4)
[14] = day 3, 58 mg/kg i.m. daily day 2-5 after infection (Group 3)
[15] = day 3, 58 mg/kg i.m. daily day 3-5 after infection (Group 4)
[16] = day 4, 58 mg/kg i.m. daily day 2-5 after infection (Group 3)
[17] = day 4, 58 mg/kg i.m. daily day 3-5 after infection (Group 4)
[18] = day 5, 58 mg/kg i.m. daily day 2-5 after infection (Group 3)
[19] = day 5, 58 mg/kg i.m. daily day 3-5 after infection (Group 4)

In the case of `CC1c2cccc(O)c2C(=O)C2=C(O)C3(O)C(=O)C(C(N)=O)=C(O)C(N(C)C)C3C(O)C21.O` (centres unmarked) [Doxycycline, 4-(Dimethylamino)-1,4,4a,5,5a,6,11,12a-octahydro-3,5,10,12,12a-pentahydroxy-6-methyl-1, 11-dioxo-2-naphthacenecarboxamide monohydrate], the “increase of the ratio of IL-1/IL-1Ra over the base level” value [1] is reported as “about 5 fold”, the “m.t.d. (mean time to death)” value [2] is reported as 7.6 and 8.54 and 7.69 and the survival [3] is reported as 70%. For the same molecule, the death ([3]; 58 mg/kg) was 6, the Survival/dead (Dengue virus, type 2) was 0/10 and the “mice dead on 4 day” value (Dengue virus, type 2) was 4 mice - on 4 day. For the same molecule, the “mice dead on 5 day” value (Dengue virus, type 2) was 5 mice - on 5 day, the “mice dead on 6 day” value (Dengue virus, type 2) was 1 mice - on 6 day and the “mice dead on day 6” value (Dengue virus, type 2) was 10 mice on day 6. The Survival/dead (Dengue virus, type 2; 58 mg/kg, monohydrate) was 10/0 and 0/10 and 6/4 and 2/4 and 1/3 and 0/1, the “toxicity to control groups” value [4] was “not toxic” and the death ([4]; of 20 mice) was 0. The survival ([4]; of 20 mice) was 20, the “toxicity to control groups” value [5] was “not toxic” and the survival ([5]; of 6 guinea pigs) was 6. For the same molecule, the “I + II” value ([6]; day 0, before the injection) was 0.166, the IL-1 ([6]; day 0, before the injection) was 2.95 pg/mL and the “IL-1/IL-IRA (I)” value ([6]; day 0, before the injection) was 0.098. For the same molecule, the IL-IRA ([6]; day 0, before the injection) was 30 pg/mL, the TNF ([6]; day 0, before the injection) was 1.17 pg/mL and the “TNF/sTNFrl (II)” value ([6]; day 0, before the injection) was 0.068. The sTNFrl ([6]; day 0, before the injection) was 17 pg/mL, the “I + II” value ([6]; day 1 after the injection) was 0.187 and the IL-1 ([6]; day 1 after the injection) was 20.62 pg/mL. The “IL-1/IL-IRA (I)” value ([6]; day 1 after the injection) was 0.115, the IL-IRA ([6]; day 1 after the injection) was 180 pg/mL and the TNF ([6]; day 1 after the injection) was 4.68 pg/mL. The “TNF/sTNFrl (II)” value ([6]; day 1 after the injection) was 0.072, the sTNFrl ([6]; day 1 after the injection) was 85 pg/mL and the “I + II” value ([6]; day 2 after the injection) was 0.753. For the same molecule, the IL-1 ([6]; day 2 after the injection) was 17.43 pg/mL, the “IL-1/IL-IRA (I)” value ([6]; day 2 after the injection) was 0.291 and the IL-IRA ([6]; day 2 after the injection) was 60 pg/mL. For the same molecule, the TNF ([6]; day 2 after the injection) was 17.55 pg/mL, the “TNF/sTNFrl (II)” value ([6]; day 2 after the injection) was 0.462 and the sTNFrl ([6]; day 2 after the injection) was 38 pg/mL. For the same molecule, the “I + II” value ([6]; day 3 after the injection) was 0.486, the IL-1 ([6]; day 3 after the injection) was 17.48 pg/mL and the “IL-1/IL-IRA (I)” value ([6]; day 3 after the injection) was 0.219. The IL-IRA ([6]; day 3 after the injection) was 80 pg/mL, the TNF ([6]; day 3 after the injection) was 9.36 pg/mL and the “TNF/sTNFrl (II)” value ([6]; day 3 after the injection) was 0.267. For the same molecule, the sTNFrl ([6]; day 3 after the injection) was 35 pg/mL, the “I + II” value ([6]; day 4 after the injection) was 0.318 and the IL-1 ([6]; day 4 after the injection) was 17.93 pg/mL. The “IL-1/IL-IRA (I)” value ([6]; day 4 after the injection) was 0.102, the IL-IRA ([6]; day 4 after the injection) was 175 pg/mL and the TNF ([6]; day 4 after the injection) was 8.19 pg/mL. The “TNF/sTNFrl (II)” value ([6]; day 4 after the injection) was 0.216, the sTNFrl ([6]; day 4 after the injection) was 38 pg/mL and the “I + II” value [7, 8] was 0.151. For the same molecule, the IL-1 [7, 8] was 2.95 pg/mL, the “IL-1/IL-IRA (I)” value [7, 8] was 0.083 and the IL-IRA [7, 8] was 30 pg/mL. The TNF [7, 8] was 1.17 pg/mL, the “TNF/sTNF (II)” value [7, 8] was 0.068 and the sTNFrl [7, 8] was 17 pg/mL. The “I + II” value [7, 9] was 0.151, the IL-1 [7, 9] was 2.95 pg/mL and the “IL-1/IL-IRA (I)” value [7, 9] was 0.083. For the same molecule, the IL-IRA [7, 9] was 30 pg/mL, the TNF [7, 9] was 1.17 pg/mL and the “TNF/sTNF (II)” value [7, 9] was 0.068. For the same molecule, the sTNFrl [7, 9] was 17 pg/mL, the “I + II” value [7, 10] was 0.407 and the IL-1 [7, 10] was 10.6 pg/mL. The “IL-1/IL-IRA (I)” value [7, 10] was 0.151, the IL-IRA [7, 10] was 70 pg/mL and the TNF [7, 10] was 8.19 pg/mL. The “TNF/sTNF (II)” value [7, 10] was 0.256, the sTNFrl [7, 10] was 32 pg/mL and the “I + II” value [7, 11] was 0.407. For the same molecule, the IL-1 [7, 11] was 10.6 pg/mL, the “IL-1/IL-IRA (I)” value [7, 11] was 0.151 and the IL-IRA [7, 11] was 70 pg/mL. For the same molecule, the TNF [7, 11] was 8.19 pg/mL, the “TNF/sTNF (II)” value [7, 11] was 0.256 and the sTNFrl [7, 11] was 32 pg/mL. For the same molecule, the “I + II” value [7, 12] was 0.985, the IL-1 [7, 12] was 16.8 pg/mL and the “IL-1/IL-IRA (I)” value [7, 12] was 0.258. The IL-IRA [7, 12] was 65 pg/mL, the TNF [7, 12] was 26.9 pg/mL and the “TNF/sTNF (II)” value [7, 12] was 0.727. For the same molecule, the sTNFrl [7, 12] was 37 pg/mL, the “I + II” value [7, 13] was 0.985 and the IL-1 [7, 13] was 16.8 pg/mL. For the same molecule, the “IL-1/IL-IRA (I)” value [7, 13] was 0.258, the IL-IRA [7, 13] was 65 pg/mL and the TNF [7, 13] was 26.9 pg/mL. For the same molecule, the “TNF/sTNF (II)” value [7, 13] was 0.727, the sTNFrl [7, 13] was 37 pg/mL and the “I + II” value [7, 14] was 0.643. The IL-1 [7, 14] was 17.9 pg/mL, the “IL-1/IL-IRA (I)” value [7, 14] was 0.211 and the IL-IRA [7, 14] was 85 pg/mL. For the same molecule, the TNF [7, 14] was 19.89 pg/mL, the “TNF/sTNF (II)” value [7, 14] was 0.432 and the sTNFrl [7, 14] was 46 pg/mL. For the same molecule, the “I + II” value [7, 15] was 1.161, the IL-1 [7, 15] was 26.7 pg/mL and the “IL-1/IL-IRA (I)” value [7, 15] was 0.381. The IL-IRA [7, 15] was 70 pg/mL, the TNF [7, 15] was 35.1 pg/mL and the “TNF/sTNF (II)” value [7, 15] was 0.780. The sTNFrl [7, 15] was 45 pg/mL, the “I + II” value [7, 16] was 0.809 and the IL-1 [7, 16] was 24.18 pg/mL. The “IL-1/IL-IRA (I)” value [7, 16] was 0.318, the IL-IRA [7, 16] was 76 pg/mL and the TNF [7, 16] was 24.57 pg/mL. The “TNF/sTNF (II)” value [7, 16] was 0.491, the sTNFrl [7, 16] was 50 pg/mL and the “I + II” value [7, 17] was 1.375. The IL-1 [7, 17] was 30.42 pg/mL, the “IL-1/IL-IRA (I)” value [7, 17] was 0.400 and the IL-IRA [7, 17] was 76 pg/mL. For the same molecule, the TNF [7, 17] was 46.8 pg/mL, the “TNF/sTNF (II)” value [7, 17] was 0.975 and the sTNFrl [7, 17] was 48 pg/mL. For the same molecule, the “I + II” value [7, 18] was 4.14, the IL-1 [7, 18] was 30.42 pg/mL and the “IL-1/IL-IRA (I)” value [7, 18] was 0.390. For the same molecule, the IL-IRA [7, 18] was 78 pg/mL, the TNF [7, 18] was 262.5 pg/mL and the “TNF/sTNF (II)” value [7, 18] was 3.75. For the same molecule, the sTNFrl [7, 18] was 70 pg/mL, the “I + II” value [7, 19] was 5.256 and the IL-1 [7, 19] was 36.6 pg/mL. The “IL-1/IL-IRA (I)” value [7, 19] was 0.435, the IL-IRA [7, 19] was 84 pg/mL and the TNF [7, 19] was 337.5 pg/mL. For the same molecule, the “TNF/sTNF (II)” value [7, 19] was 4.821 and the sTNFrl [7, 19] was 70 pg/mL.
